# Assay results as given in patent publication US20230219957A1, “SMALL MOLECULE CB002-ANALOGES RESTORE THE P53 PATHWAY AND TARGET S-PHASE CHECKPOINT” (Brown University, priority 2020, published 2023).
# Experiments:
# SW480 shNoxa cells = assay: Tumor xenograft efficacy in NSG mice, Noxa knockdown; format: in vivo; settings: compared to vehicle control
# Method: Knockdown expression of NOXA by lentivirus infection. A NOXA shRNA plasmid construct was amplified according to the manufacturers recommendation (TRC Lentiviral Human PMAIP1 shRNA, Dharmacon). Plasmid DNA was isolated using the PureLink® HiPure Plasmid Filter Maxiprep Kit (Invitrogen) according to the manufacturers instructions. Lentivirus production was performed by transfecting HEK293T cells at a density of 8×10^6 cells per 10-cm dish with 1.6 μg pMD2.G envelope plasmid, 3.2 μg psPAX2 packaging vector, 3.2 μg plasmid DNA, and 24 μL of Lipofectamine® Transfection reagent 2000 (Life Technologies) in a total volume of the reaction of 1 mL of antibiotic-free DMEM media for 6-10 hours. The media was then replaced with antibiotic-free DMEM. Lentiviral particles were collected between forty-eight to seventy-two hours. SW480 cells ([…] cells per well in a 12-well plate) were infected 1:1 (virus-containing media: antibiotic-free DMEM media, total volume 1 mL) for twenty-four hours. Then, the media was replaced with DMEM complete media for an additional twenty-four hours. […]
# Drug efficacy using in vivo tumor xenografts. […] Mouse weight and tumor measurements were recorded one-two times per week. Tumor volume was calculated as V=0.5*L*W^2, where L is length and W is the width of the tumor. […]
# SW480 cells = assay: Propidium iodide Sub-G1 apoptosis analysis; format: cell-based, human; settings: compared to vehicle control, forty-eight hours
# Method: Apoptosis assay. Apoptotic cells were quantified by sub-G1 analysis. Cells were seeded at a density of 2.5×10^5to 5×10^5in a 6-well plate and treated forty-eight to seventy-two hours. After treatment, adherent cells were trypsinized and collected along with floating cells, washed with phosphate-buffered saline, and fixed in 70% ethanol. Cells were then incubated in a phosphate-citric acid buffer (0.2M Na2HPO4+0.1M citric acid, pH 7.8) at room temperature for five minutes, spun down, and resuspended for staining with 50 μg/mL propidium iodide (PI) in the presence of 250 μg/mL pancreatic ribonuclease (RNase A). Sub-G1 analyses were performed using an Epics Elite Epics flow cytometer (Coulter-Beckman).
# Propidium iodide and BrdU flow cytometry assay. Cells were seeded at a density of 5×10^5 in a 6-well plate and treated for forty-eight to seventy-two hours. After treatment, floating cells were collected, and adherent cells were trypsinized, pelleted, washed with phosphate-buffered saline, and fixed in 70% ethanol overnight. For propidium iodide (PI) based Sub-G1 apoptosis analysis, cells were spun down after fixation and resuspended in phosphate-citric acid buffer (0.2M Na2HPO4+0.1M Citric Acid, pH 7.8) at room temperature for five minutes. […] Samples were analyzed on an Epics Elite Epics flow cytometer (Coulter-Beckman).
smiles,measurement,setting,value
Cn1c(=O)c2[nH]c(Nc3cccc(C(F)(F)F)c3)nc2n(C)c1=O [CB002-analog #4],tumor volume,SW480 shNoxa cells,did not differ in tumor volume
same,Sub-G1 content,SW480 cells,significant increase of Sub-G1 content
